# Columns and labels:
# rats = test: SNI (spared nerve injury) mononeuropathy: allodynia and hyperpathy; type: in vivo, rat
# Experimental: Adult male Sprague-Dawley rats (250-300 g) were used for these trials. Over the period of the experiments, the rats were placed under standard conditions (4 to 5 individuals to a cage, 12 hour day/night cycle, 22.2° C.), with free access to water and food. The necessary surgical procedures were done under deep anesthesia using ketamine (Ketalar®, 40-50 mg/kg, intraperitoneal injection), preceded by pre-anesthesia using chlorpromazine (8 mg/kg, idem) and atropine (0.05 mg/kg, idem).
# Mononeuropathy was induced in different groups of rats (n=6 rats in each group) according to the CCI (chronic constriction injury, chronic nerve constriction, Bennet G. J. et Xie Y. K., 1988, A peripheral mononeuropathy in rat that produces disorders of pain sensation like those seen in man, Pain, 33:87-107) or according to the SNI (spared nerve injury, spared nerve of the enervated paw, Decosterd I. et Woolf C. J., 2000, Spared nerve injury: an animal model of persistent peripheral neuropathic pain, Pain, 87:149-158). The sciatic nerve was exposed after dissection of the posterior hip and by incision through the skin and the fatty layer covering the popliteal fossa. For the CCI model, four loose ligatures (chromed catgut 4.0) were placed on the proximal side of the sciatic trifurcation. For the SNI model, the external popliteal sciatic nerve and the internal popliteal sciatic nerve were isolated, tightly ligatured and sectioned, while the sural nerve innervating the lateral aspect of the paw was left intact.
# The rats were placed in individual compartments of one cage, whose floor was made of a metal grating allowing access to the heel pad and to the lateral aspect of the paw with wires.
# For mechanical allodynia, the plantar surface of the hind paws (lateral surface for the SNI model and the median plantar surface for the CCI) was contacted with the von Frey wires (VFF 4.31 and 5.07, Stoelting Co., USA), which corresponded to the forces of 2.041 and 11.749 g (18.5 and 106.7 mN), respectively. […] The number of paw retractions induced by 10 trials was established for each rat on each hind paw prior to (baseline) and after induction of the mono-neuropathy. In normal rats, the low caliber wires (VFF 4.31) and higher caliber (VFF 5.07) induced an average 1.3±0.2 and 2.7±0.3 responses/10 trials, respectively.
# The method described by Choi et al. (1994, Behavioral signs of ongoing pain and cold allodynia in a rat model of neuropathic pain, Pain, 59:369-376) was used for evaluation of cold allodynia. It consists of applying several drops (approximately 50 μl) of an acetone solution on the paw and measuring the duration of the retraction reaction. One half second and 20 seconds are the values chosen arbitrarily for the minimum and maximum threshold, respectively.
# The duration (D) of retraction of the paw (RP) in response to a nociceptive ray of radiant heat oriented towards the plantar surface was established in the normal rat. […] the DRP after induction of the mononeuropathy was considered to be an indication of hyperalgesia. Each rat underwent two RP tests per session a minimum of every five minutes.
# The neuropathic manifestations were at maximum seven to ten days after induction of the neuropathy. The effects of the injections of TAP were tested during this period, which corresponds to the peak of the neuropathy.
# During the experiments done on rats suffering from neuropathy, allodynia and hyperpathy were evaluated in each group of animals with reference to the baseline condition established prior to induction of mononeuropathy. For example, the average of the number of paw withdrawal induced by each VFF was calculated for all of the rats of each group and the variation of this mean has been determined after treatment with TAP at different time periods after the injection. The same method has been followed for allodynia in the code and the hypertrophy relative to heat.
# IL-1β = IL-1β in hind paw skin after intraplantar ET (ELISA); type: in vivo, rat
# Experimental: These experiments required tissue sampling. The animals were sacrificed by anesthesia (sodium penthiobarbital, 50 mg/kg) and the skin of the hind paws is sampled either at 1 h (for the determination of the TNFα) or at 4 h (for the determination of IL-1β, IL-6 and NGF) after the endotoxin injection.
# These tissue samples are weighed and then quick frozen and stored at −70° C. with a view of proceeding with the evaluation of IL-1β, TNFα, IL-6 and NGF.
# In another series of experiments, the tissues are taken as described above using different groups of rats; the one group being pretreated with TAP 30 minutes before injection of ET and the other group having been injected with TAP only.
# The tissues are homogenized in a phosphate buffer solution (PBS, pH=7.4), containing 0.4 M of NaCl, 0.05% of Tween-20®, 0.5% bovine serum albumin (BSA), 0.1 mM of phenylmethylsulfonyl fluoride, 0.1 mM of benzethonium chloride, 10 mM of EDTA and 20 KI/mL of aprotinin.
# The mixture is then centrifuged at 1,200 g for 60 minutes at 4° C. The cytokines and the NFG contained in the supernatant were measured using ELIZA assays. […]
# [1] = SNI, meloxican 5 mg/kg i.p., morphine 4 mg/kg i.p., at peak of activity 45-60 minutes after injection, FIG. 10
substance,measurement,setting,value
Glu-Ala-lys-Ser-Gln-Gly-Gly-Ser-Asp (SQGGSD; N-terminal Glu-Ala-Lys; printed: Ser-Gln-Gly-Gly-Ser-Asp) [TAP],"reversibility of the effects, time after injection","rats; SNI, TAP 5 μg i.p.",three to four hours
same,time of maximum effect on all of the neuropathic manifestations after injection,"rats; SNI, TAP 5 μg i.p.",75 min
same,dose giving maximal attenuation of the neuropathic manifestations,"rats; SNI, doses 1, 5 and 25 μg compared, FIG. 7",5 μg/rat
same,reduction of tactile allodynia compared with meloxican and morphine,rats; [1],greater reduction
same,reduction of thermal hyperalgesia compared with meloxican and morphine,rats; [1],greater reduction
same,"effect on cold allodynia, SNI model","rats; TAP 5 μg i.p., single injection",only moderately reduced
same,"effect on neuropathic manifestations, SNI model","rats; TAP 5 μg in 100 μl i.p., FIG. 6",significant attenuation
same,"change of IL-1β concentration, TAP alone","IL-1β; TAP 25 μg in control animals, no ET",did not induce significant change
same,IL-1β concentration,"IL-1β; TAP pretreatment before intraplantar ET, ET alone 2850.6±255.4, saline 400.0±45.0, P<0.01",1686.0±266.0 pg/paw

# Reference: US20050261194A1, “Use of thymulin-like peptides for making pain-relieving medicines” (priority 2001, published 2005)
